In BigSolDB 2.1:

O=c1cc(-c2ccccc2)oc2c1ccc1ccccc12
Details	solubility (mole fraction)
in 1,4-dioxane, 288.15 K	0.0128
in 1,4-dioxane, 293.15 K	0.0158
in 1,4-dioxane, 298.15 K	0.019
in 1,4-dioxane, 303.15 K	0.0223
in 1,4-dioxane, 308.15 K	0.0259
in 1,4-dioxane, 313.15 K	0.0307
in 1,4-dioxane, 318.15 K	0.0363
in acetone, 273.15 K	0.00209
in acetone, 278.15 K	0.00273
in acetone, 283.15 K	0.00326
in acetone, 288.15 K	0.00392
in acetone, 293.15 K	0.00466
in acetone, 298.15 K	0.00546
in acetone, 303.15 K	0.00636
in acetone, 308.15 K	0.00736
in acetone, 313.15 K	0.00846
in acetone, 318.15 K	0.00963
in acetonitrile, 273.15 K	0.000628
in acetonitrile, 278.15 K	0.000846
in acetonitrile, 283.15 K	0.00105
in acetonitrile, 288.15 K	0.00126
in acetonitrile, 293.15 K	0.0015
in acetonitrile, 298.15 K	0.00176
in acetonitrile, 303.15 K	0.00204
in acetonitrile, 308.15 K	0.00242
in acetonitrile, 313.15 K	0.00291
in acetonitrile, 318.15 K	0.0034
in cyclohexane, 283.15 K	0.000138
in cyclohexane, 288.15 K	0.000189
in cyclohexane, 293.15 K	0.000246
in cyclohexane, 298.15 K	0.00031
in cyclohexane, 303.15 K	0.000391
in cyclohexane, 308.15 K	0.000477
in cyclohexane, 313.15 K	0.000573
in cyclohexane, 318.15 K	0.000694
in ethanol, 273.2 K	0.000306
in ethanol, 278.2 K	0.000475
in ethanol, 283.2 K	0.000677
in ethanol, 288.2 K	0.000892
in ethanol, 293.2 K	0.00113
in ethanol, 298.2 K	0.00136
in ethanol, 303.2 K	0.00163
in ethanol, 308.2 K	0.00197
in ethanol, 313.2 K	0.00235
in ethanol, 318.2 K	0.00277
in ethyl acetate, 273.15 K	0.00271
in ethyl acetate, 278.15 K	0.00331
in ethyl acetate, 283.15 K	0.00391
in ethyl acetate, 288.15 K	0.00461
in ethyl acetate, 293.15 K	0.00532
in ethyl acetate, 298.15 K	0.00614
in ethyl acetate, 303.15 K	0.0071
in ethyl acetate, 308.15 K	0.00824
in ethyl acetate, 313.15 K	0.00948
in ethyl acetate, 318.15 K	0.0109
in isobutanol, 273.15 K	0.000861
in isobutanol, 278.15 K	0.00118
in isobutanol, 283.15 K	0.00153
in isobutanol, 288.15 K	0.0019
in isobutanol, 293.15 K	0.00231
in isobutanol, 298.15 K	0.00279
in isobutanol, 303.15 K	0.00331
in isobutanol, 308.15 K	0.00396
in isobutanol, 313.15 K	0.00475
in isobutanol, 318.15 K	0.00554
in isopropanol, 273.2 K	0.000474
in isopropanol, 278.2 K	0.000676
in isopropanol, 283.2 K	0.00085
in isopropanol, 288.2 K	0.00105
in isopropanol, 293.2 K	0.00127
in isopropanol, 298.2 K	0.00153
in isopropanol, 303.2 K	0.00181
in isopropanol, 308.2 K	0.0022
in isopropanol, 313.2 K	0.00265
in isopropanol, 318.2 K	0.00313
in methanol, 273.2 K	0.000712
in methanol, 278.2 K	0.000934
in methanol, 283.2 K	0.00119
in methanol, 288.2 K	0.00144
in methanol, 293.2 K	0.00171
in methanol, 298.2 K	0.00203
in methanol, 303.2 K	0.00238
in methanol, 308.2 K	0.00277
in methanol, 313.2 K	0.00335
in methanol, 318.2 K	0.00398
in n-butanol, 273.15 K	0.00106
in n-butanol, 278.15 K	0.00149
in n-butanol, 283.15 K	0.00194
in n-butanol, 288.15 K	0.00244
in n-butanol, 293.15 K	0.00291
in n-butanol, 298.15 K	0.00346
in n-butanol, 303.15 K	0.00412
in n-butanol, 308.15 K	0.00487
in n-butanol, 313.15 K	0.00575
in n-butanol, 318.15 K	0.00673
in n-propanol, 273.2 K	0.000773
in n-propanol, 278.2 K	0.00105
in n-propanol, 283.2 K	0.0014
in n-propanol, 288.2 K	0.00178
in n-propanol, 293.2 K	0.00218
in n-propanol, 298.2 K	0.00261
in n-propanol, 303.2 K	0.0031
in n-propanol, 308.2 K	0.00364
in n-propanol, 313.2 K	0.00424
in n-propanol, 318.2 K	0.005
in toluene, 273.15 K	0.00423
in toluene, 278.15 K	0.00517
in toluene, 283.15 K	0.00623
in toluene, 288.15 K	0.00735
in toluene, 293.15 K	0.00862
in toluene, 298.15 K	0.01
in toluene, 303.15 K	0.0116
in toluene, 308.15 K	0.0136
in toluene, 313.15 K	0.0155
in toluene, 318.15 K	0.0178
